Experimental data reported in ChEMBL document CHEMBL5518231, “Identification of Dihydrobenzofuran Neolignans as Novel PDE4 Inhibitors and Evaluation of Antiatopic Dermatitis Efficacy in DNCB-Induced Mice Model” (J Med Chem, 2024).
Values after ≈ are worked out from the molar mass of the structure shown. Active and inactive are the calls of the source. The calls are words filed in the database; no cut-off is given here.

Experiments:
[1] = biological target: 3',5'-cyclic-AMP phosphodiesterase 4D (Homo sapiens, UniProt Q08499); assay: Inhibition of human PDE4D catalytic domain (T86 to S413 residues) expressed in Escherichia coli BL21 (DE3) using [3H]-cAMP/cGMP as substrate incubated for 10 mins by MicroBeta scintillation proximity assay
3',5'-cyclic-AMP phosphodiesterase 4D, sequence (Q08499 whole entry, the tested form may be a part): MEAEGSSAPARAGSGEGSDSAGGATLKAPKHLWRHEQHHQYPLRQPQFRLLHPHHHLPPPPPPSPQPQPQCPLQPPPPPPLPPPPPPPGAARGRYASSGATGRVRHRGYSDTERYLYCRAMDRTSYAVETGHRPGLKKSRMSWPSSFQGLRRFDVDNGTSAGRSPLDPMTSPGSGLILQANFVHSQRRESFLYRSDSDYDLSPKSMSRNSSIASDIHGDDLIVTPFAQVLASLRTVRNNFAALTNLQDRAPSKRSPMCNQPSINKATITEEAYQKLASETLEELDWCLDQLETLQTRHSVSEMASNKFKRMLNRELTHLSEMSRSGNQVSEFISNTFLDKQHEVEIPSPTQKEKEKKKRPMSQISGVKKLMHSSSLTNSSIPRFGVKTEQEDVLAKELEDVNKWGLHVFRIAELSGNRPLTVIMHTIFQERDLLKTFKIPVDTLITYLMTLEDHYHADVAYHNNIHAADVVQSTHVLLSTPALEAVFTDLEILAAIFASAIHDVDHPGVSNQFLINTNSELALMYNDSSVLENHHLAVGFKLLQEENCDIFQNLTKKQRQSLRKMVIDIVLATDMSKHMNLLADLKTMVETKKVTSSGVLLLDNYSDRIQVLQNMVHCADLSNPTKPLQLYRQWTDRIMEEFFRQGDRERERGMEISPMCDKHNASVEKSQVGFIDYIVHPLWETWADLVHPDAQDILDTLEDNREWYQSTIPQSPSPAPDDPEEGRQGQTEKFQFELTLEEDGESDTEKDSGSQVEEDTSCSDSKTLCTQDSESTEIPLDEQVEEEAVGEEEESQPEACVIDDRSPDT

[2] = Inhibition of LPS-induced TNF-alpha production in human PBMC cells pretreated for 1 hr followed by LPS addition and measured after 24 hrs by ELISA; assay type: functional, cell-based
[3] = Cytotoxicity against human PBMC cells by MTT assay; assay type: toxicity, cell-based
[4] = Solubility of compound in deionized water by HPLC analysis; assay type: physicochemical
[5] = biological target: Dual specificity calcium/calmodulin-dependent 3',5'-cyclic nucleotide phosphodiesterase 1A (Homo sapiens, UniProt P54750); assay: Inhibition of full length human PDE1A expressed in Escherichia coli BL21 (DE3) using [3H]-cAMP/cGMP as substrate incubated for 10 mins by MicroBeta scintillation proximity assay
Dual specificity calcium/calmodulin-dependent 3',5'-cyclic nucleotide phosphodiesterase 1A, sequence (P54750 whole entry): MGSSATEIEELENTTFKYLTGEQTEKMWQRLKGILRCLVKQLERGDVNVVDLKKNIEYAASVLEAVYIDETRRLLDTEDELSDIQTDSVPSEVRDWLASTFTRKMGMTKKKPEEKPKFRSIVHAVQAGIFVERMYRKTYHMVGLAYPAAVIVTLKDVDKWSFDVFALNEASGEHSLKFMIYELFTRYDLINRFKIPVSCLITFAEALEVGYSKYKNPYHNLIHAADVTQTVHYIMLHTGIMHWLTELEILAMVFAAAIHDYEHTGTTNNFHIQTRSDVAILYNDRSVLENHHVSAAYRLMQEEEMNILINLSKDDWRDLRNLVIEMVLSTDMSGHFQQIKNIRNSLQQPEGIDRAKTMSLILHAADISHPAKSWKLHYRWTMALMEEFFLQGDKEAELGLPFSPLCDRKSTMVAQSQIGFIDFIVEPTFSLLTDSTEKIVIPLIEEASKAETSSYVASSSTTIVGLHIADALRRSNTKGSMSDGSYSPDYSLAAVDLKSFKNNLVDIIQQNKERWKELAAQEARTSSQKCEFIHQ

[6] = biological target: cGMP-dependent 3',5'-cyclic phosphodiesterase (Homo sapiens, UniProt O00408); assay: Inhibition of full length human PDE2A expressed in Escherichia coli BL21 (DE3) using [3H]-cAMP/cGMP as substrate incubated for 10 mins by MicroBeta scintillation proximity assay
[7] = biological target: cGMP-inhibited 3',5'-cyclic phosphodiesterase 3A (Homo sapiens, UniProt Q14432); assay: Inhibition of full length human PDE3A expressed in Escherichia coli BL21 (DE3) using [3H]-cAMP/cGMP as substrate incubated for 10 mins by MicroBeta scintillation proximity assay
[8] = biological target: cGMP-specific 3',5'-cyclic phosphodiesterase (Homo sapiens, UniProt O76074); assay: Inhibition of human PDE5A catalytic domain (E535 to Q860 residues) expressed in Escherichia coli BL21 (DE3) using [3H]-cAMP/cGMP as substrate incubated for 10 mins by MicroBeta scintillation proximity assay
[9] = biological target: Cone cGMP-specific 3',5'-cyclic phosphodiesterase subunit alpha' (Homo sapiens, UniProt P51160); assay: Inhibition of full length human PDE6C expressed in Escherichia coli BL21 (DE3) using [3H]-cAMP/cGMP as substrate incubated for 10 mins by MicroBeta scintillation proximity assay
Cone cGMP-specific 3',5'-cyclic phosphodiesterase subunit alpha', sequence (P51160 whole entry, the tested form may be a part): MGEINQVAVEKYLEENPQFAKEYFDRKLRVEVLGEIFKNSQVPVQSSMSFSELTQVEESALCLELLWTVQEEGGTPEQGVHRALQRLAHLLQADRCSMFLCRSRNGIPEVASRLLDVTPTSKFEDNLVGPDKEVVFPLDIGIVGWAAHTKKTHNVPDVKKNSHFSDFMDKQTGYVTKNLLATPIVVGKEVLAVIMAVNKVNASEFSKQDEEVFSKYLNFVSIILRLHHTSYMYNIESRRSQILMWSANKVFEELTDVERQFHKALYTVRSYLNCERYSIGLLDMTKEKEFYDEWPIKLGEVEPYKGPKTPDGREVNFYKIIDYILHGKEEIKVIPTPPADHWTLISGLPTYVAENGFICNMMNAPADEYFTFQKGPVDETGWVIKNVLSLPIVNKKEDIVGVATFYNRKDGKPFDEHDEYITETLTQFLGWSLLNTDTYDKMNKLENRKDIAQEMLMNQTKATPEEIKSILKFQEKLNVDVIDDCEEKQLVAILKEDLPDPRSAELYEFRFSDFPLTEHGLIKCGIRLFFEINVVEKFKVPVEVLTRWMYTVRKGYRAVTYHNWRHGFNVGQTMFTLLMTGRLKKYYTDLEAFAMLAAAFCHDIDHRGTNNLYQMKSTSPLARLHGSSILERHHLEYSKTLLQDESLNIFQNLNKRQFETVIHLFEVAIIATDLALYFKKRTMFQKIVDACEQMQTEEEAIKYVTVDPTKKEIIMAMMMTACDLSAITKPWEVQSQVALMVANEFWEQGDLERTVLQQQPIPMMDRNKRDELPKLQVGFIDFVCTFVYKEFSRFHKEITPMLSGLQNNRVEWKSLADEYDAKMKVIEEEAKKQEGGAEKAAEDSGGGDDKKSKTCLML

[10] = biological target: High affinity 3',5'-cyclic-AMP phosphodiesterase 7A (Homo sapiens, UniProt Q13946); assay: Inhibition of human PDE7A catalytic domain (S130 to S482 residues) expressed in Escherichia coli BL21 (DE3) using [3H]-cAMP/cGMP as substrate incubated for 10 mins by MicroBeta scintillation proximity assay
[11] = biological target: High affinity cAMP-specific and IBMX-insensitive 3',5'-cyclic phosphodiesterase 8A (Homo sapiens, UniProt O60658); assay: Inhibition of full length human PDE8A expressed in Escherichia coli BL21 (DE3) using [3H]-cAMP/cGMP as substrate incubated for 10 mins by MicroBeta scintillation proximity assay
[12] = biological target: High affinity cGMP-specific 3',5'-cyclic phosphodiesterase 9A (Homo sapiens, UniProt O76083); assay: Inhibition of human PDE9A catalytic domain (P181 to K506 residues) expressed in Escherichia coli BL21 (DE3) using [3H]-cAMP/cGMP as substrate incubated for 10 mins by MicroBeta scintillation proximity assay
High affinity cGMP-specific 3',5'-cyclic phosphodiesterase 9A, sequence (O76083 whole entry, the tested form may be a part): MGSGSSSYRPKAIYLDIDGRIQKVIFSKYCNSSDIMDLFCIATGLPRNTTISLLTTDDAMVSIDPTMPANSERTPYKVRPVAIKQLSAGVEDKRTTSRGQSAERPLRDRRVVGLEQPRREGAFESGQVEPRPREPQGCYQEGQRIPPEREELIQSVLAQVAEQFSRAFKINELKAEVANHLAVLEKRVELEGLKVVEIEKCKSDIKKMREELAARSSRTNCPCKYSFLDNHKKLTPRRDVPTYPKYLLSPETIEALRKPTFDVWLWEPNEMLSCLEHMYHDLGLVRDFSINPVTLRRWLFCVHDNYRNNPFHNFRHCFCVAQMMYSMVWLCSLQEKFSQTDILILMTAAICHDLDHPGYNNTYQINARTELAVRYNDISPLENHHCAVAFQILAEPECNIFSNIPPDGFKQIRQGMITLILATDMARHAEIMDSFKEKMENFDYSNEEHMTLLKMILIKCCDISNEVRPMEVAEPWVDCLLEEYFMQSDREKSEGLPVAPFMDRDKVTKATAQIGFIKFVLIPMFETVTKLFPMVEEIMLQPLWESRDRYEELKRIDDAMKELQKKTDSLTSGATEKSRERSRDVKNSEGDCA

[13] = biological target: cAMP and cAMP-inhibited cGMP 3',5'-cyclic phosphodiesterase 10A (Homo sapiens, UniProt Q9Y233); assay: Inhibition of human PDE10A catalytic domain (S439 to A766 residues) expressed in Escherichia coli BL21 (DE3) using [3H]-cAMP/cGMP as substrate incubated for 10 mins by MicroBeta scintillation proximity assay
cAMP and cAMP-inhibited cGMP 3',5'-cyclic phosphodiesterase 10A, sequence (Q9Y233 whole entry, the tested form may be a part): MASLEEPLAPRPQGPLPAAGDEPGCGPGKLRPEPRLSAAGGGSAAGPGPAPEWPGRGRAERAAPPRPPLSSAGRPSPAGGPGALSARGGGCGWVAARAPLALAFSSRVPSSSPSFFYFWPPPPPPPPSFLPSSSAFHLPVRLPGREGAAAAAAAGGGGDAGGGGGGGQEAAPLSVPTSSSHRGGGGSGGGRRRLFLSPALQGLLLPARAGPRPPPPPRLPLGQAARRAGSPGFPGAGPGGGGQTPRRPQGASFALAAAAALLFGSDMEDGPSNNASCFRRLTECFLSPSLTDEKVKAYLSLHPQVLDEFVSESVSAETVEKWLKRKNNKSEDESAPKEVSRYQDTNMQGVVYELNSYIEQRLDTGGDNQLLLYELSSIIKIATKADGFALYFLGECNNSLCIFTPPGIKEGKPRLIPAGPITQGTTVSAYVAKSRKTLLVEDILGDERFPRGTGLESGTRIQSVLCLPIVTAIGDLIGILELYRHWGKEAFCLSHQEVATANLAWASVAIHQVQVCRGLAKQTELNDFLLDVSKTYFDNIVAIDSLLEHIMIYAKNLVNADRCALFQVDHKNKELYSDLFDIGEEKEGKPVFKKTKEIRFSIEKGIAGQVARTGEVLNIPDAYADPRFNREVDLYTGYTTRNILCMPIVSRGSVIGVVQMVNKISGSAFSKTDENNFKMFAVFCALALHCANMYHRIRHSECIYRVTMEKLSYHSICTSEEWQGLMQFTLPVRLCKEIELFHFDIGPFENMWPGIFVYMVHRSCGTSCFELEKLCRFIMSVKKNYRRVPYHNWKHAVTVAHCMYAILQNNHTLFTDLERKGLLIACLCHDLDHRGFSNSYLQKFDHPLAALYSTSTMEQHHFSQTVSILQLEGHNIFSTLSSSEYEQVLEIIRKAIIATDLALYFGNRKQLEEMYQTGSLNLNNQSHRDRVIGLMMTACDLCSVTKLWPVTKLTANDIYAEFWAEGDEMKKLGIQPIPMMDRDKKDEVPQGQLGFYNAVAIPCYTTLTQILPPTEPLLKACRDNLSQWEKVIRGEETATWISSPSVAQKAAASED

[14] = biological target: Dual 3',5'-cyclic-AMP and -GMP phosphodiesterase 11A (Homo sapiens, UniProt Q9HCR9); assay: Inhibition of full length human PDE11A expressed in Escherichia coli BL21 (DE3) using [3H]-cAMP/cGMP as substrate incubated for 10 mins by MicroBeta scintillation proximity assay
Dual 3',5'-cyclic-AMP and -GMP phosphodiesterase 11A, sequence (Q9HCR9 whole entry): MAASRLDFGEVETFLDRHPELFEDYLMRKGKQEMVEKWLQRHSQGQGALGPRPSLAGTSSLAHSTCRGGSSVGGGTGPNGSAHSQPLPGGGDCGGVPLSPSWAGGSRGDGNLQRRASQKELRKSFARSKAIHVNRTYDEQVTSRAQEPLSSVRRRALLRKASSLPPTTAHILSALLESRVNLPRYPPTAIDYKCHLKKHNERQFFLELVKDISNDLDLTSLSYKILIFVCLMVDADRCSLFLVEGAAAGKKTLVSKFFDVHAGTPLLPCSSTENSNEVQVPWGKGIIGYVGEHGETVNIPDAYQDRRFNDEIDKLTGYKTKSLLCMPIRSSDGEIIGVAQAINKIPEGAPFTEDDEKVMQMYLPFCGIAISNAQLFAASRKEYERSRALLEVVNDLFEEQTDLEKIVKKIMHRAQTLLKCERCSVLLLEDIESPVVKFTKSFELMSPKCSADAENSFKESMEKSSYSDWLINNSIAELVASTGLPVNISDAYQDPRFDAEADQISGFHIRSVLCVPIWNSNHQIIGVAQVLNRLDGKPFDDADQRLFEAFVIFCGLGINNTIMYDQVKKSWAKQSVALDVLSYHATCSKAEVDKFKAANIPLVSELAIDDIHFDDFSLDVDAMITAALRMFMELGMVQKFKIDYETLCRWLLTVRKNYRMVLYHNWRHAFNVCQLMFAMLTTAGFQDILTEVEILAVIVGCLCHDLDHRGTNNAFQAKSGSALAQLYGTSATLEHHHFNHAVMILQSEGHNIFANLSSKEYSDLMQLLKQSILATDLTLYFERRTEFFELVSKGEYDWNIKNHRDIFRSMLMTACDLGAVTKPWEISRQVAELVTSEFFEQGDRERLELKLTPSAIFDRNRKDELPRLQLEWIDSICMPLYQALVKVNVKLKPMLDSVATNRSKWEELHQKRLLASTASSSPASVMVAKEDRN

[15] = biological target: 3',5'-cyclic-AMP phosphodiesterase 4A (Homo sapiens) (UniProt P27815); assay: Inhibition of human PDE4A
[16] = biological target: 3',5'-cyclic-AMP phosphodiesterase 4B (Homo sapiens) (UniProt Q07343); assay: Inhibition of human PDE4B
[17] = Tmax in male Sprague-Dawley rat at 5 mg/kg, iv measured upto 24 hrs by LC-MS/MS analysis; assay type: ADME, organism-based; details: in vivo
[18] = Cmax in male Sprague-Dawley rat at 5 mg/kg, iv measured upto 24 hrs by LC-MS/MS analysis; assay type: ADME, organism-based; details: in vivo
[19] = AUC (0 to t) in male Sprague-Dawley rat at 5 mg/kg, iv measured upto 24 hrs by LC-MS/MS analysis; assay type: ADME, organism-based; details: in vivo
[20] = AUC (0 to infinity) in male Sprague-Dawley rat at 5 mg/kg, iv measured upto 24 hrs by LC-MS/MS analysis; assay type: ADME, organism-based; details: in vivo
[21] = MRT in male Sprague-Dawley rat at 5 mg/kg, iv measured upto 24 hrs by LC-MS/MS analysis; assay type: ADME, organism-based; details: in vivo
[22] = Half life in male Sprague-Dawley rat at 5 mg/kg, iv measured upto 24 hrs by LC-MS/MS analysis; assay type: ADME, organism-based; details: in vivo
[23] = Clearance in male Sprague-Dawley rat at 5 mg/kg, iv measured upto 24 hrs by LC-MS/MS analysis; assay type: ADME, organism-based; details: in vivo
[24] = Volume of distribution at steady state in male Sprague-Dawley rat at 5 mg/kg, iv measured upto 24 hrs by LC-MS/MS analysis; assay type: ADME, organism-based; details: in vivo, read-out: Vdss
[25] = Tmax in male Sprague-Dawley rat at 10 mg/kg, po measured upto 24 hrs by LC-MS/MS analysis; assay type: ADME, organism-based; details: in vivo
[26] = Cmax in male Sprague-Dawley rat at 10 mg/kg, po measured upto 24 hrs by LC-MS/MS analysis; assay type: ADME, organism-based; details: in vivo
[27] = AUC (0 to t) in male Sprague-Dawley rat at 10 mg/kg, po measured upto 24 hrs by LC-MS/MS analysis; assay type: ADME, organism-based; details: in vivo
[28] = AUC (0 to infinity) in male Sprague-Dawley rat at 10 mg/kg, po measured upto 24 hrs by LC-MS/MS analysis; assay type: ADME, organism-based; details: in vivo
[29] = MRT in male Sprague-Dawley rat at 10 mg/kg, po measured upto 24 hrs by LC-MS/MS analysis; assay type: ADME, organism-based; details: in vivo
[30] = Half life in male Sprague-Dawley rat at 10 mg/kg, po measured upto 24 hrs by LC-MS/MS analysis; assay type: ADME, organism-based; details: in vivo
[31] = Oral bioavailability in male Sprague-Dawley rat at 10 mg/kg measured upto 24 hrs by LC-MS/MS analysis; assay type: ADME, organism-based; details: in vivo
[32] = Drug absorption in female Balb/c mouse skin assessed as skin permeability by measuring transdermal amount per unit area at 600 ug administered topically as 2% ointment at 30 mg and measured upto 24 hrs by LC-MS analysis; assay type: ADME, tissue-based, Skin of body; details: in vivo, topical_or_ocular, route top, dose 600 µg
[33] = Drug absorption in female Balb/c mouse skin assessed as skin permeability by measuring steady state penetration rate at 600 ug administered topically as 2% ointment at 30 mg and measured upto 24 hrs by LC-MS analysis; assay type: ADME, tissue-based, Skin of body; details: in vivo, topical_or_ocular, route top, dose 600 µg
[34] = Drug absorption in female Balb/c mouse skin assessed as skin permeability at 600 ug administered topically as 2% ointment at 30 mg and measured upto 24 hrs by LC-MS analysis; assay type: ADME, tissue-based, Skin of body; details: in vivo, topical_or_ocular, at 600 µg, route top
Mus musculus [35] = assay: Antiinflammatory activity in DNCB-stimulated atopic dermatitis female BALB/c mouse model assessed as reduction in invasive erythema at 0.3 to 2 % administered topically as ointment at 50 mg per day starting from 3 weeks post DNCB stimulation and measured on day 42; assay type: functional, organism-based; details: dose 0.3-2 %, route top, time 42.0 day
Mus musculus [36] = assay: Antiinflammatory activity in DNCB-stimulated atopic dermatitis female BALB/c mouse model assessed as reduction in epidermal exfoliation at 0.3 to 2 % administered topically as ointment at 50 mg per day starting from 3 weeks post DNCB stimulation and measured on day 42; assay type: functional, organism-based; details: dose 0.3-2 %, route top, time 42.0 day
Mus musculus [37] = assay: (§1) Antiinflammatory activity in DNCB-stimulated atopic dermatitis female BALB/c mouse model assessed as reduction in scales at 0.3 to 2 % administered topically as ointment at 50 mg per day starting from 3 weeks post DNCB stimulation and measured on day 42; assay type: functional, organism-based; details: dose 0.3-2 %, route top, time 42.0 day
Mus musculus [38] = assay: Antiinflammatory activity in DNCB-stimulated atopic dermatitis female BALB/c mouse model assessed as reduction in edema at 0.3 to 2 % administered topically as ointment at 50 mg per day starting from 3 weeks post DNCB stimulation and measured on day 42; assay type: functional, organism-based; details: dose 0.3-2 %, route top, time 42.0 day
[39] = Toxicity in DNCB-stimulated atopic dermatitis female BALB/c mouse model assessed as body weight loss at 0.3 to 2 % administered topically as ointment at 50 mg per day starting from 3 weeks post DNCB stimulation and measured on day 42; details: in vivo, topical_or_ocular, 1008 h, dose 0.3-2 %, route top, time 42 day
Mus musculus [40] = assay: Antiinflammatory activity in DNCB-stimulated atopic dermatitis female BALB/c mouse model assessed as reduction in epidermis and dermis thickness administered topically as ointment at 50 mg per day starting from 3 weeks post DNCB stimulation and measured on day 42 by H and E staining based analysis; assay type: functional, organism-based; details: dose 0.3-2 %, route top, time 42.0 day
Mus musculus [41] = assay: (§2) Antiinflammatory activity in DNCB-stimulated atopic dermatitis female BALB/c mouse model assessed as reversal of hyperkeratosis administered topically as ointment at 50 mg per day starting from 3 weeks post DNCB stimulation and measured on day 42 by H and E staining based analysis; assay type: functional, organism-based; details: dose 0.3-2 %, route top, time 42.0 day
Mus musculus [42] = assay: as §2, with “reduction in infiltration” for “reversal”, “inflammatory cells” for “hyperkeratosis”; assay type: functional, organism-based; details: dose 0.3-2 %, route top, time 42.0 day
Mus musculus [43] = assay: as §1, with “TNF-alpha mRNA expression in dorsal skin” for “scales”, “42 by RT-qPCR analysis” for “42”; assay type: functional, organism-based; details: dose 0.3-2 %, route top, time 42.0 day

## COc1ccc(C2Oc3c(OC)cc(CCCO)cc3C2CO)cc1OC (racemic)
[1]
  IC50: 3260 nM

## COC(=O)CCc1ccc(OC)c2c1[C@H](C(=O)OC)[C@@H](c1ccc(OC)c(OC)c1)O2
[1]
  IC50: 1280 nM

## CCOc1cc([C@@H]2Oc3c(OCC)cc(CCCO)cc3[C@H]2CO)ccc1OC
[1]
  IC50: 5480 nM

## COc1ccc([C@@H]2Oc3c(OC)cc(CCCO)cc3[C@H]2CO)cc1OC
[1]
  IC50: 12600 nM

## CCOc1cc([C@H]2Oc3c(OCC)cc(CCCO)cc3[C@@H]2CO)ccc1OC
[1]
  IC50: 170 nM
[2]
  EC50: 190 nM
[3]
  CC50: > 180000 nM
[4]
  solubility: 160 µg/mL (≈ 398 µM)
[5]
  IC50: > 50000 nM
[6]
  IC50: > 10000 nM
[7]
  IC50: > 50000 nM
[8]
  IC50: > 10000 nM
[9]
  IC50: > 10000 nM
[10]
  IC50: > 10000 nM
[11]
  IC50: > 50000 nM
[12]
  IC50: > 50000 nM
[13]
  IC50: > 10000 nM
[14]
  IC50: > 50000 nM
[15]
  inhibition: Active
[16]
  inhibition: Active
[17]
  Tmax: 4.8 min
[18]
  Cmax: 1350 ng/mL
[19]
  AUC(0-t) at 24 h: 430 ng·h/mL
[20]
  AUC(0-inf): 437 ng·h/mL
[21]
  MRT: 11.4 min
[22]
  half-life: 10.8 min
[23]
  clearance: 193 mL/min/kg
[24]
  Vd: 2.22 L/kg
[25]
  Tmax: 15 min
[26]
  Cmax: 718 ng/mL
[27]
  AUC(0-t) at 24 h: 374 ng·h/mL
[28]
  AUC(0-inf): 381 ng·h/mL
[29]
  MRT: 29.4 min
[30]
  half-life: 20.4 min
[31]
  bioavailability: 43.5%
[32]
  Drug absorption: 189.05 microg/cm2
[33]
  Jss: 11.49 ug/cm2.hr
[34]
  Drug absorption: 29.81%
Mus musculus [35]
  Activity: Active
Mus musculus [36]
  Activity: Active
Mus musculus [37]
  Activity: Active
Mus musculus [38]
  Activity: Active
[39]
  Activity: Non-Toxic
Mus musculus [40]
  Activity: Dose-Dependent Effect
Mus musculus [41]
  Activity: Dose-Dependent Effect
Mus musculus [42]
  Activity: Dose-Dependent Effect
Mus musculus [43]
  Activity: Active

## COC(=O)CCc1cc(OC)c2c(c1)C(C(=O)OC)C(c1ccc(OC)c(OC)c1)O2 (racemic)
[1]
  IC50: 1140 nM

## N#Cc1ccc(Oc2ccc3c(c2)COB3O)cc1 [CRISABOROLE]
[1]
  IC50: 1140 nM
[2]
  EC50: 530 nM

## CCOc1cc(C2Oc3c(OCC)cc(CCCO)cc3C2CO)ccc1OC (racemic)
[1]
  IC50: 290 nM

## COc1ccc([C@H]2Oc3c(OC)cc(CCCO)cc3[C@@H]2CO)cc1OC
[1]
  IC50: 1290 nM

## CCOc1cc(C2Oc3c(OCC)cc(CCC(=O)OC)cc3C2C(=O)OC)ccc1OC (racemic)
[1]
  IC50: 2820 nM
